Assay results from PMC8457056, “Remodeling of the Fibrillation Pathway of α‐Synuclein by Interaction with Antimicrobial Peptide LL‐III” (Chemistry (Weinheim an Der Bergstrasse, Germany), 2021).

Columns and labels:
[1] = ref [28]; cited from earlier work
Excerpt: (§1) Antimicrobial peptides (AMPs) are a particular class of disordered proteins. They form an important part of the immune system of all living organisms and are considered as the first line of defense against infections caused by pathogens.[25, 26, 27] […] The LL‐III is a posi ...

[2] = tested on: several bacterial strains, fungi; conditions: ref [28]; cited from earlier work
Excerpt: as §1

[3] = tested on: cancer cells; conditions: cited from earlier work
Excerpt: as §1

[4] = tested on: α‐Syn droplets; assay: fluorescence microscopy, partitioning of LL-III in α-Syn droplets; type: binding, human; conditions: 100 μM α-Syn, pH 5.0, 25 °C
Experimental: Figure 1 A) Phase‐contrast light microscopy snapshots of 100 μM and 200 μM α‐Syn solutions collected 2, 4, 7, 9 and 16 days after incubation of the monomeric α‐Syn. B) Phase‐contrast light microscopy snapshots of a solution of 100 μM α‐Syn in the presence of the reported concentration of antimicrobial peptide LL‐III. Each sample was prepared by mixing the monomeric form of α‐Syn with LL‐III. The pictures were taken after 9 and 16 days of incubation. For the snapshots after 16 days, at each peptide concentration, two different regions of the cover slip were sampled, showing the presence of discrete droplets as well as droplet clusters in solution. C) Phase‐contrast light and fluorescence microscopy snapshots of a 100 μM α‐Syn solution in the presence of 50 μM LL‐III (total peptide concentration, the concentration of the carboxyfluorescein‐labelled peptide was 1 μM). All the experiments were performed at room temperature (25 °C) in 20 mM sodium acetate buffer, pH 5.0. […]
To reveal if the short antimicrobial peptide LL‐III is able to affect the fibril formation of α‐Syn, we performed a series of microscopy experiments by using 100 μM of α‐Syn and varying the concentration of LL‐III between 50 μM and 500 μM. […] To confirm partitioning of the LL‐III peptide in the α‐Syn droplets, complementary fluorescence microscopy experiments were performed using a carboxyfluorescein‐labelled LL‐III peptide. […]

[5] = net charge of LL-III; type: physicochemical
[6] = tested on: α‐Syn; assay: fraction of complexed α-Syn calculated from Kb; type: binding, human; conditions: 100 μM α-Syn, calculated from K b
Experimental: From the magnitude of K b, the fraction of complexed α‐Syn in the microscopy experiments could be calculated (Figure S5). For 100 μM α‐Syn, the fraction of complexed α‐Syn, θ, in the presence of 50 μM LL‐III amounts to about 0.3. […] This is likely due to the ability of the peptide to interact with one or two α‐Syn molecules within the droplets. The interaction is expected to occur mainly via the interaction of the positively charged (+6) and hydrophobic groups of LL‐III with the negatively charged C‐terminus (−12) and hydrophobic NAC region of α‐Syn, respectively. […] In the presence of 200 μM and 500 μM LL‐III, the θ‐values are 0.70 and 0.90, respectively.
Figure S4. Binding isotherm obtained by means of Trp steady-state fluorescence anisotropy. The experiment was performed by titrating a 5 µM solution of LL-III with a solution of α-Syn in the range 0-50 µM. The red line represents the best fit according to a 1:1 binding model. The experiments were performed in 20 mM sodium acetate buffer, pH 5.0, at 25 °C.
Figure S5. Plot of the fraction of bound α -Syn as a function of the total peptide concentration. The fraction of bound α -Syn was calculated according to the concentration used in the phase- contrast light microscopy experiments reported in Figu re 1 B of the main text: 100 µ M α-Syn and 50 µM (grey circle), 200 µM (red circle) and 500 µ M (blue circle) of LL-III. […]

[7] = tested on: α‐Syn; assay: phase-contrast light microscopy of α-Syn droplet and fibril formation; type: biochemical, human
Experimental: Figure 1 A) Phase‐contrast light microscopy snapshots of 100 μM and 200 μM α‐Syn solutions collected 2, 4, 7, 9 and 16 days after incubation of the monomeric α‐Syn. B) Phase‐contrast light microscopy snapshots of a solution of 100 μM α‐Syn in the presence of the reported concentration of antimicrobial peptide LL‐III. Each sample was prepared by mixing the monomeric form of α‐Syn with LL‐III. The pictures were taken after 9 and 16 days of incubation. For the snapshots after 16 days, at each peptide concentration, two different regions of the cover slip were sampled, showing the presence of discrete droplets as well as droplet clusters in solution. C) Phase‐contrast light and fluorescence microscopy snapshots of a 100 μM α‐Syn solution in the presence of 50 μM LL‐III (total peptide concentration, the concentration of the carboxyfluorescein‐labelled peptide was 1 μM). All the experiments were performed at room temperature (25 °C) in 20 mM sodium acetate buffer, pH 5.0. The scale bar is 30 μm.
To reveal if the short antimicrobial peptide LL‐III is able to affect the fibril formation of α‐Syn, we performed a series of microscopy experiments by using 100 μM of α‐Syn and varying the concentration of LL‐III between 50 μM and 500 μM. The samples were prepared by mixing a solution of LL‐III peptide and α‐Syn in the monomeric state and taking pictures after 9 and 16 days. The results are collected in Figure 1B. […] After 9 days, droplets as well as clusters thereof were visible. The size of the clusters depended on the LL‐III concentration. Higher peptide concentrations promoted the association of more droplets. […] To confirm partitioning of the LL‐III peptide in the α‐Syn droplets, complementary fluorescence microscopy experiments were performed using a carboxyfluorescein‐labelled LL‐III peptide.
The lyophilized powders of the labeled and unlabeled LL-III peptide were purchased from GenScript, Germany.
The sequence of the LL-III peptide is NH2-VNWKKIL GKIIKVVK -CONH2. In th e labeled peptide, the fluorophore 6-carboxyfluorescein (FAM) was covalently attached to the N-terminus of the peptide. All the solutions were pre-pared in 20 mM sodium acetate buffer at pH 5.0. Deionized water was used for the buffer and all sample prepara- […]
Expression and purification of α-synuclein
The expression and purification of α-synuclein (α-Syn) was carried out as described before.[1,2] The plasmid was purchased from GenScript. The plasmid pT7- 7 expressing human α-synuclein was transformed into Escherichia coli strain BL21 (DE3). A single colony was picked and inoculated into 100 m l LB medium containing 150 μg/m l ampicillin and grown at 37°C with shaking at 250 rpm until the absorbance at 600 nm reached 0.8. Induction was then carried out by adding 1 mM IPTG (final concentration) and the culture was further grown under similar con-ditions for 3 h. The cells were harvested, resuspended in 0.75 ml of buffer (50 mM Tris-HCl, pH 7.5, 10 mM EDTA and 150 mM NaCl) and frozen at - 80 °C. Tubes containing frozen cells were placed in a boiling water bath for 7 min and the supernatant collected after centrifugation at maximum speed for […]. Streptomycin sulfate (136 μl/ml of supernatant) and glacial acetic acid (228 μl/ml of supernatant) were added and centrifuged for 2 min. Again, t he supernatant was recovered and precipitated with ammonium sulfate (saturated ammonium sulfate at 4°C was used 1:1, v/v, with supernatant). […]

Substance: NH2-VNWKKIL GKIIKVVK -CONH2 [LL‐III]
- cytotoxicity [1]: moderate cytotoxicity
- activity against several bacterial strains, fungi [2]: remarkable activity
- cellular localization ([3]; ref [22]): localizing mainly in the nucleolus and in granules
- translocation across plasma membrane ([3]; ref [22]): able to translocate across the plasma membrane of cancer cells
- activity against cancer cells ([3]; ref [28]): remarkable activity
- partitioning in α-Syn droplets ([4]; 50 μM LL-III of which 1 μM carboxyfluorescein-labelled, 20 mM sodium acetate, excitation 488 nm): most of the LL‐III peptide was localized in the α‐Syn droplets
- droplet clusters after 16 days ([4]; 16 days): formation of LL‐III‐enriched droplet clusters were observed after 16 days
- net charge at pH 5.0 ([5]; also at the lower pH of pH 5.0): +6
- net charge at pH 7.4 ([5]; pH 7.4): +6
- fraction of complexed α‐Syn, θ ([6]; 50 μM LL-III): about 0.3
- fraction of complexed α‐Syn, θ ([6]; 200 μM LL-III): 0.70
- fraction of complexed α‐Syn, θ ([6]; 500 μM LL-III): 0.90
- inhibition of α-Syn fibril formation ([7]; 100 μM monomeric α-Syn, LL-III 50–500 μM, 9 and 16 days, 20 mM sodium acetate, pH 5.0, 25 °C): LL‐III inhibits formation of the amyloidogenic state of the protein
- inhibition of fibril formation at 50 μM LL-III ([7]; 100 μM α-Syn, 50 μM LL-III, 20 mM sodium acetate, pH 5.0, 25 °C): the formation of fibrils was already inhibited
- number of droplets ([7]; 100 μM α-Syn, 200 μM and 500 μM LL-III, pH 5.0, 25 °C): the number of droplets was significantly increased
- effect on droplet condensate after 16 days ([7]; 100 μM α-Syn, LL-III 50–500 μM, 16 days, pH 5.0, 25 °C): fostered formation of the droplet condensate
- decondensation of the droplets ([7]; conclusion): No decondensation of the droplets takes place
